Converted amounts (≈) assume the structure as drawn. Read-outs that look alike come from different tables or passages of the source.
Tests used:
Leishmania tarentolae = assay: Anti-protozoal activity, cell counts of Leishmania tarentolae; format: cell-based; details: for activity at 0.1 µM / activity at 0.25 µM / activity at 0.5 µM / activity at 1 µM / activity at 2.5 µM: Leishmania tarentolae, read-out: % control
Protocol: Leishmania tarentolae was grown in BHI (brain heart infusion; Difco) supplemented with 10 μg/ml of hemin. Leishmanial cells were counted by doing a 1:1 dilution of the cells with 3% formaldehyde/1×SSC (0.15 M NaCl/0.015 M sodium citrate) solution. Cells were seeded at log phase (0.5-1×10^6 cells/ml) in T-25 cm^2 flasks. Equal volumes of HHC at different concentrations (0.1, 0.25, 0.5, 1.0, 2.5 μM) were added to the cells. DMSO at the same volume as that used for HHC was included as solvent control. At each time point (6, 12, 18, 24, 32 hrs post-drug addition), cells were observed under the microscope for possible effect of HHC on Leishmanial motility. Aliquots of cells (100 μl) were removed from each flask at each time point, diluted as mentioned above and cell numbers were quantitated using a hemocytometer.

[1] = system: MRSA (Methicillin Resistant Staphylococcus aureus); assay: Patient isolates evaluated for antibiotic sensitivity, MRSA; details: for antibiotic sensitivity: threshold not given
MCF-7 cells = assay: Colony formation (clonogenic) assay, cytotoxic activity, 18 hour pulse exposure; format: cell-based; details: Homo sapiens, MCF7, 2 experiments, read-out: ID50 (the source's name)
Protocol: HHC was tested for cytotoxic activity using a colony formation assay, using an 18 hour pulse exposure. The purpose of the clonogenic assay is to determine the concentration of HHC at which 50% of cell growth is inhibited (i.e., IC50) when cells are exposed to the HHC for a defined amount of time (i.e., a pulse exposure to the xenobiotic).
Five ml of a mixture of 2×10^5 cells/ml (MCF-7 cells) were placed in each of 4 T-25 flasks in a media of RPMI (Gibco). The cells were incubated at 37 ° C. under 5% CO2 for a minimum of 14 hours to allow the cells to attach. The cells were pulsed for 18 hours with HHC concentrations of 0, 1.5, and 25 μM, or with DMSO.
The media was removed from the flasks (i.e., media with floating cells) and placed in 15 ml polypropylene centrifuge tubes 1-4 (summarized in Table II). […]
The cells in the original cell suspension (i.e., in the flask) were counted using trypan blue exclusion assay (described in Example II). Based on this count, the number of cells in the 50x tubes were calculated. The volume necessary to acquire approximately 5400 cells was then determined. […]
Five ml of suspension from each of tubes 13-16 was transferred to 60×15 mm tissue culture dishes (in triplicate). […] The cells were counted in those colonies which consisted of at least 50 cells. The ID50 was determined as described in Example II.

E. Coli = assay: Minimum inhibitory concentration, E. coli; details: Escherichia coli
[2] = system: M. tuberculosis (ATCC 27294); assay: BACTEC drug susceptibility, M. tuberculosis; format: cell-based; details: Mycobacterium tuberculosis, ATCC27294
[3] = system: C1300 cells (mouse neuroblastoma); assay: In vitro ID50 in C1300 mouse neuroblastoma cells; format: cell-based; details: Neuroblastoma cell; 48 hours of continuous exposure; preliminary data
Protocol: C1300 cells (mouse neuroblastoma), a murine tumor cell model which is sensitive to HHC were evaluated.

CC(C)CCC1=C(O)C(C(=O)C(C)C)=C(O)C(CCC(C)C)(CCC(C)C)C1=O [HHC, hexahydrocolupulone]
cells/ml (Leishmania tarentolae; 0.1 μM, 6 hr): 2.65 no. of cells × 10^6 | cells/ml (Leishmania tarentolae; 0.1 μM, 12 hr): 6.58 no. of cells × 10^6 | cells/ml (Leishmania tarentolae; 0.1 μM, 18 hr): 12.1 no. of cells × 10^6 | cells/ml (Leishmania tarentolae; 0.1 μM, 24 hr): 21.2 no. of cells × 10^6 | cells/ml (Leishmania tarentolae; 0.1 μM, 32 hr): 43.9 no. of cells × 10^6 | cells/ml (Leishmania tarentolae; 0.25 μM, 6 hr): 3.0 no. of cells × 10^6 | cells/ml (Leishmania tarentolae; 0.25 μM, 12 hr): 7.35 no. of cells × 10^6 | cells/ml (Leishmania tarentolae; 0.25 μM, 18 hr): 12.7 no. of cells × 10^6 | cells/ml (Leishmania tarentolae; 0.25 μM, 24 hr): 19.72 no. of cells × 10^6 | cells/ml (Leishmania tarentolae; 0.25 μM, 32 hr): 40.1 no. of cells × 10^6 | cells/ml (Leishmania tarentolae; 0.5 μM, 6 hr): 2.43 no. of cells × 10^6 | cells/ml (Leishmania tarentolae; 0.5 μM, 12 hr): 5.13 no. of cells × 10^6 | cells/ml (Leishmania tarentolae; 0.5 μM, 18 hr): 9.22 no. of cells × 10^6 | cells/ml (Leishmania tarentolae; 0.5 μM, 24 hr): 14.2 no. of cells × 10^6 | cells/ml (Leishmania tarentolae; 0.5 μM, 32 hr): 29.2 no. of cells × 10^6 | cells/ml (Leishmania tarentolae; 1.0 μM, 6 hr): 2.09 no. of cells × 10^6 | cells/ml (Leishmania tarentolae; 1.0 μM, 12 hr): 2.53 no. of cells × 10^6 | cells/ml (Leishmania tarentolae; 1.0 μM, 18 hr): 2.55 no. of cells × 10^6 | cells/ml (Leishmania tarentolae; 1.0 μM, 24 hr): 2.9 no. of cells × 10^6 | cells/ml (Leishmania tarentolae; 1.0 μM, 32 hr): 3.4 no. of cells × 10^6 | cells/ml (Leishmania tarentolae; 2.5 μM, 6 hr): 1.81 no. of cells × 10^6 | cells/ml (Leishmania tarentolae; 2.5 μM, 12 hr): 3.03 no. of cells × 10^6 | cells/ml (Leishmania tarentolae; 2.5 μM, 18 hr): 3.38 no. of cells × 10^6 | cells/ml (Leishmania tarentolae; 2.5 μM, 24 hr): 2.13 no. of cells × 10^6 | cells/ml (Leishmania tarentolae; 2.5 μM, 32 hr): 2.82 no. of cells × 10^6 | activity at 0.1 µM (Leishmania tarentolae; 0.1 μM, 6 hr): 76.4% | activity at 0.1 µM (Leishmania tarentolae; 0.1 μM, 12 hr): 96.6% | activity at 0.1 µM (Leishmania tarentolae; 0.1 μM, 18 hr): 96.8% | activity at 0.1 µM (Leishmania tarentolae; 0.1 μM, 24 hr): 118% | activity at 0.1 µM (Leishmania tarentolae; 0.1 μM, 32 hr): 114% | activity at 0.25 µM (Leishmania tarentolae; 0.25 μM, 6 hr): 86.5% | activity at 0.25 µM (Leishmania tarentolae; 0.25 μM, 12 hr): 103% | activity at 0.25 µM (Leishmania tarentolae; 0.25 μM, 18 hr): 101% | activity at 0.25 µM (Leishmania tarentolae; 0.25 μM, 24 hr): 110% | activity at 0.25 µM (Leishmania tarentolae; 0.25 μM, 32 hr): 104% | activity at 0.5 µM (Leishmania tarentolae; 0.5 μM, 6 hr): 70% | activity at 0.5 µM (Leishmania tarentolae; 0.5 μM, 12 hr): 72.1% | activity at 0.5 µM (Leishmania tarentolae; 0.5 μM, 18 hr): 73.8% | activity at 0.5 µM (Leishmania tarentolae; 0.5 μM, 24 hr): 79.3% | activity at 0.5 µM (Leishmania tarentolae; 0.5 μM, 32 hr): 75.6% | activity at 1 µM (Leishmania tarentolae; 1.0 μM, 6 hr): 60.2% | activity at 1 µM (Leishmania tarentolae; 1.0 μM, 12 hr): 35.5% | activity at 1 µM (Leishmania tarentolae; 1.0 μM, 18 hr): 20.4% | activity at 1 µM (Leishmania tarentolae; 1.0 μM, 24 hr): 16.2% | activity at 1 µM (Leishmania tarentolae; 1.0 μM, 32 hr): 8.8% | activity at 2.5 µM (Leishmania tarentolae; 2.5 μM, 6 hr): 52.2% | activity at 2.5 µM (Leishmania tarentolae; 2.5 μM, 12 hr): 42.6% | activity at 2.5 µM (Leishmania tarentolae; 2.5 μM, 18 hr): 27% | activity at 2.5 µM (Leishmania tarentolae; 2.5 μM, 24 hr): 11.9% | activity at 2.5 µM (Leishmania tarentolae; 2.5 μM, 32 hr): 7.3% | MIC ([1]; Staphylococcus aureus, read-out: [HHC] (MIC)): 1.01 µg/mL (≈ 2.5 µM) | antibiotic sensitivity ([1]; patient D): S | [HHC] (MIC) ([1]; patient E): 1.015 µg/mL | antibiotic sensitivity ([1]; patient E): S | [HHC] (MIC) ([1]; patient F): 1.015 µg/mL | antibiotic sensitivity ([1]; patient F): S | IC50 (MCF-7 cells): 1620 nM | MIC (E. Coli): > 100 µM | MIC (E. Coli; read-out: MIC, HHC negative control): 100 µg/mL | inhibition at 50 µM ([2]; 50 μM, read-out: inhibition of tuberculosis growth): > 99% | inhibition at 100 µM ([2]; 100 μM, read-out: inhibition of TB growth): 100% | IC50 [3]: ~1940 nM

— patent US5827895A, “Hexahydrolupulones useful as anticancer agents” (Regents of the University of Minnesota, priority 1996, dated 1998)
